Results from patent US20240401154A1, “SYNTHESIS AND PREPARATION OF ULTRA-LOW VISCOSITY AND HIGH MAGNETIC SUSCEPTIBILITY MAGNETIC IONIC LIQUIDS” (priority 2023, published 2024).

Tests used:
Type in all cases: physicochemical
[1] = Thermal stability, MIL as GC stationary phase with FID; settings: exponential increase in response beyond 2,000 pA
Protocol: (§1) The thermal stability of MILs was measured from 40 to 350° C. at a ramp rate of 5° C. min^−1 by performing thermogravimetric analysis (TGA) using a NETZSCH STA 449 F1 Jupiter thermal analyzer (Selb, Germany). To further investigate the thermal stability of MILs using a more sensitive technique, the solvents were employed as a gas chromatographic (GC) stationary phase and subjected to an oven temperature program from 40 to 200° C. at a ramp rate of 1° C. min^−1 and decomposition/degradation products detected using an ultra-sensitive flame ionization detector (FID), with all measurements being performed on an Agilent Technologies 7890B gas chromatograph (Santa Clara, CA, USA).
To further investigate the thermal stability of MILs using a more sensitive technique, the solvents were employed as a gas chromatographic (GC) stationary phase and subjected to an oven temperature program from 40 to 200° C. at a ramp rate of 1° C. min^−1 and decomposition/degradation products detected using an ultra-sensitive flame ionization detector (FID).

[2] = Viscosity, Brookfield DVI cone and plate viscometer; settings: 21.7° C.; neat MIL dried 48 hours under vacuum
Protocol: A Brookfield DVI cone and plate viscometer equipped with a CPA-51Z cone spindle was employed to obtain viscosity measurements at […] using approximately 0.5 g of each MIL after extensive drying for 48 hours under vacuum. Viscosity measurements were conducted at 21.7° C. for 15 lanthanide and transition metal MILs examined in this study.
Viscosity measurements were conducted at 21.7° C. for 15 lanthanide and transition metal MILs examined in this study.

[3] = Effective magnetic moment from magnetic susceptibility balance (MSB); settings: per formula unit
Protocol: Magnetic properties were analyzed using a magnetic susceptibility balance (MSB, Sherwood Scientific, Cambridge, UK) and a Quantum Design Superconducting Quantum Interference Device (SQUID) magnetometer (MPMS XL-7). The magnetic properties of transition metal MILs were further studied using a SQUID magnetometer to confirm their paramagnetic nature as well as if any magnetic transition occurs in the samples.
Magnetic susceptibility (XM) was calculated through Equation (1).
Effective magnetic moment (μeff) was calculated through Equation (2). In Equation (2), T represents the temperature at which the magnetic susceptibility measurements were conducted.
15 MILs incorporating rare-earth and transition metals were examined using a magnetic susceptibility balance (MSB).

[4] = Solubility of MILs in organic solvents and water
From the text: The solubility of lanthanide and transition metal MILs was investigated in popular traditional organic solvents. […]
The solubility of lanthanide and transition metal MILs was investigated in popular traditional organic solvents.

[5] = Thermal stability by thermogravimetric analysis (TGA); settings: TGA at 10% weight loss
Protocol: as §1
Volitization/degradation of MILs as a function of temperature were measured using thermogravimetric analysis. The thermal stability of magnetic ionic liquids was measured from 40 to 350° C. at a ramp rate of 5° C. min^−1 by performing thermogravimetric analysis (TGA) using a NETZSCH STA 449 F1 Jupiter thermal analyzer (Selb, Germany).
To investigate the ability of DGE-based MILs to withstand elevated temperatures without undergoing degradation/decomposition, their thermal stabilities were investigated using thermogravimetric analysis (TGA). FIG. 13 through FIG. 27 display thermograms for MILs 1 to 15. The thermogram results are summarized in greater detail in the following paragraphs.

[6] = acetone, chloroform, dichloromethane, acetonitrile, methanol, ethanol, diethyl ether, ethyl acetate, isopropanol at 20% (w/v)
[7] = hexane, heptane, benzene, toluene at 10% (w/v)
[8] = hexane, heptane, benzene, toluene at 20% (w/v)
[9] = twelve organic solvents (without acetonitrile) at 50% (w/v)

SMILES	Onset of MIL volatilization (° C.)^1 [1] [°C]	Viscosity (cP) [2] [cP]	μeff, effective magnetic moment [3] [μB]	Solubility [4, 6]	Solubility ([4]; acetonitrile at 50% (w/v))	Solubility [4, 7]	Solubility [4, 8]	Solubility [4, 9]	Solubility ([4]; water at 0.01% (w/v))	Onset of MIL volatilization (° C.)^2 [5] [°C]
CCCCCCOC(=O)COCC(=O)OCCCCCC.CCCCCCOC(=O)COCC(=O)OCCCCCC.CCCCCCOC(=O)COCC(=O)OCCCCCC.CCCCCCOC(=O)COCC(=O)OCCCCCC.CCCCCCOC(=O)COCC(=O)OCCCCCC.CCCCCCOC(=O)COCC(=O)OCCCCCC.O=C(C=C([O-])C(F)(F)F)C(F)(F)F.O=C(C=C([O-])C(F)(F)F)C(F)(F)F.O=C(C=C([O-])C(F)(F)F)C(F)(F)F.O=C(C=C([O-])C(F)(F)F)C(F)(F)F.O=C(C=C([O-])C(F)(F)F)C(F)(F)F.O=C(C=C([O-])C(F)(F)F)C(F)(F)F.[Mn+2].[Mn+2].[Mn+2] [compound 3]	168	63.2	10.42	S^b (soluble in acetone, chloroform, dichloromethane, acetonitrile, methanol, ethanol, diethyl ether, ethyl acetate, and isopropanol at 20% (w/v).)	S^e (insoluble in acetonitrile at 50% (w/v).)	S^a (soluble in hexane, heptane, benzene, and toluene at 10% (w/v).)	S^c (soluble in hexane, heptane, benzene, and toluene at 20% (w/v).)	S^d (soluble in acetone, chloroform, dichloromethane, methanol, ethanol, diethyl ether, ethyl acetate, isopropanol hexane, heptane, benzene, and toluene at 50% (w/v).)	S^f (insoluble in water at 0.01% (w/v).)	256.8
O=C(C=C([O-])C(F)(F)F)C(F)(F)F.O=C(C=C([O-])C(F)(F)F)C(F)(F)F.O=C(C=C([O-])C(F)(F)F)C(F)(F)F.O=C(C=C([O-])C(F)(F)F)C(F)(F)F.O=C(C=C([O-])C(F)(F)F)C(F)(F)F.O=C(C=C([O-])C(F)(F)F)C(F)(F)F.O=C(COCC(=O)OC1CCCCC1)OC1CCCCC1.O=C(COCC(=O)OC1CCCCC1)OC1CCCCC1.O=C(COCC(=O)OC1CCCCC1)OC1CCCCC1.O=C(COCC(=O)OC1CCCCC1)OC1CCCCC1.O=C(COCC(=O)OC1CCCCC1)OC1CCCCC1.O=C(COCC(=O)OC1CCCCC1)OC1CCCCC1.[Co+2].[Co+2].[Co+2] [compound 7]	133	639.4	8.11	S^b (soluble in acetone, chloroform, dichloromethane, acetonitrile, methanol, ethanol, diethyl ether, ethyl acetate, and isopropanol at 20% (w/v).)	S^e (insoluble in acetonitrile at 50% (w/v).)	S^a (soluble in hexane, heptane, benzene, and toluene at 10% (w/v).)	S^c (soluble in hexane, heptane, benzene, and toluene at 20% (w/v).)	S^d (soluble in acetone, chloroform, dichloromethane, methanol, ethanol, diethyl ether, ethyl acetate, isopropanol hexane, heptane, benzene, and toluene at 50% (w/v).)	S^f (insoluble in water at 0.01% (w/v).)	200.1
CCCCCCCCOC(=O)COCC(=O)OCCCCCCCC.CCCCCCCCOC(=O)COCC(=O)OCCCCCCCC.CCCCCCCCOC(=O)COCC(=O)OCCCCCCCC.CCCCCCCCOC(=O)COCC(=O)OCCCCCCCC.CCCCCCCCOC(=O)COCC(=O)OCCCCCCCC.CCCCCCCCOC(=O)COCC(=O)OCCCCCCCC.O=C(C=C([O-])C(F)(F)F)C(F)(F)F.O=C(C=C([O-])C(F)(F)F)C(F)(F)F.O=C(C=C([O-])C(F)(F)F)C(F)(F)F.O=C(C=C([O-])C(F)(F)F)C(F)(F)F.O=C(C=C([O-])C(F)(F)F)C(F)(F)F.O=C(C=C([O-])C(F)(F)F)C(F)(F)F.O=C(C=C([O-])C(F)(F)F)C(F)(F)F.O=C(C=C([O-])C(F)(F)F)C(F)(F)F.[Co+2].[Dy+3].[Dy+3] [compound 13]	131	137.2	15.38	S^b (soluble in acetone, chloroform, dichloromethane, acetonitrile, methanol, ethanol, diethyl ether, ethyl acetate, and isopropanol at 20% (w/v).)	–	S^a (soluble in hexane, heptane, benzene, and toluene at 10% (w/v).)	S^c (soluble in hexane, heptane, benzene, and toluene at 20% (w/v).)	S^d (soluble in acetone, chloroform, dichloromethane, methanol, ethanol, diethyl ether, ethyl acetate, isopropanol hexane, heptane, benzene, and toluene at 50% (w/v).)	S^f (insoluble in water at 0.01% (w/v).)	182.3
O=C(C=C([O-])C(F)(F)F)C(F)(F)F.O=C(C=C([O-])C(F)(F)F)C(F)(F)F.O=C(C=C([O-])C(F)(F)F)C(F)(F)F.O=C(C=C([O-])C(F)(F)F)C(F)(F)F.O=C(C=C([O-])C(F)(F)F)C(F)(F)F.O=C(C=C([O-])C(F)(F)F)C(F)(F)F.O=C(COCC(=O)OC1CCCCC1)OC1CCCCC1.O=C(COCC(=O)OC1CCCCC1)OC1CCCCC1.O=C(COCC(=O)OC1CCCCC1)OC1CCCCC1.O=C(COCC(=O)OC1CCCCC1)OC1CCCCC1.O=C(COCC(=O)OC1CCCCC1)OC1CCCCC1.O=C(COCC(=O)OC1CCCCC1)OC1CCCCC1.[Mn+2].[Mn+2].[Mn+2] [compound 9]	159	478.9	9.96	S^b (soluble in acetone, chloroform, dichloromethane, acetonitrile, methanol, ethanol, diethyl ether, ethyl acetate, and isopropanol at 20% (w/v).)	S^e (insoluble in acetonitrile at 50% (w/v).)	S^a (soluble in hexane, heptane, benzene, and toluene at 10% (w/v).)	S^c (soluble in hexane, heptane, benzene, and toluene at 20% (w/v).)	S^d (soluble in acetone, chloroform, dichloromethane, methanol, ethanol, diethyl ether, ethyl acetate, isopropanol hexane, heptane, benzene, and toluene at 50% (w/v).)	S^f (insoluble in water at 0.01% (w/v).)	176.9
O=C(C=C([O-])C(F)(F)F)C(F)(F)F.O=C(C=C([O-])C(F)(F)F)C(F)(F)F.O=C(C=C([O-])C(F)(F)F)C(F)(F)F.O=C(C=C([O-])C(F)(F)F)C(F)(F)F.O=C(C=C([O-])C(F)(F)F)C(F)(F)F.O=C(C=C([O-])C(F)(F)F)C(F)(F)F.O=C(COCC(=O)OC1CCCCC1)OC1CCCCC1.O=C(COCC(=O)OC1CCCCC1)OC1CCCCC1.O=C(COCC(=O)OC1CCCCC1)OC1CCCCC1.O=C(COCC(=O)OC1CCCCC1)OC1CCCCC1.O=C(COCC(=O)OC1CCCCC1)OC1CCCCC1.O=C(COCC(=O)OC1CCCCC1)OC1CCCCC1.[Ni+2].[Ni+2].[Ni+2] [compound 8]	154	827.6	5.53	S^b (soluble in acetone, chloroform, dichloromethane, acetonitrile, methanol, ethanol, diethyl ether, ethyl acetate, and isopropanol at 20% (w/v).)	S^e (insoluble in acetonitrile at 50% (w/v).)	S^a (soluble in hexane, heptane, benzene, and toluene at 10% (w/v).)	S^c (soluble in hexane, heptane, benzene, and toluene at 20% (w/v).)	S^d (soluble in acetone, chloroform, dichloromethane, methanol, ethanol, diethyl ether, ethyl acetate, isopropanol hexane, heptane, benzene, and toluene at 50% (w/v).)	S^f (insoluble in water at 0.01% (w/v).)	182.2
